Literature values, collected in patent publication US20230210112A1, “METHOD FOR GROWING PLANTS” (Taminco BV, priority 2020, published 2023).

How the values were obtained:
pests = conditions: in vivo
cauliflower seedlings = conditions: 20 mM BABA
Tomato plants = conditions: treated tomato seedlings

Row | Compound | Effect on plant growth or development (in words) (pests) | Resistance-inducing activity (in words) (pests) | Reduction in growth of cauliflower seedlings (cauliflower seedlings) [%] | Concentration at which root growth repression was observed (as low as) (Tomato plants) [mM]
1 | N[C@@H](CO)CC(=O)O [(R)-beta-homoserine] | without affecting plant growth or development | strong resistance-inducing activity |  | 
2 | CC(N)CC(=O)O (stereo not drawn) [BABA, beta-aminobutyric acid] |  |  | 14.7 | 0.5
3 | CC/C=C\C[C@H]1C(=O)CC[C@@H]1CC(=O)O [JA, jasmonic acid] |  |  |  | 0.25
